US20100120690A1, “Polypeptides Having Antimicrobial Activity and Polynucleotides Encoding Same” (Novozymes Adenium Biotech A/S, priority 2005, published 2010)

Columns and labels:
[1] = system: S. epidermis; experiment: Minimal Effective Concentration (MEC) assay; format: cell-based, Staphylococcus epidermidis
Description: (§1) Three antimicrobial polypeptides, which are variants of SEQ ID NO: 1, were tested for antimicrobial activity. A Minimal Effective Concentration assay (MEC, expressed as micrograms/mL) against different microorganisms was performed using the three plectasin mutants, Y40YR, N17R and Y25R following the protocol described in the book of Methods in Molecular Biology, Vol. 78, Antibacterial peptide protocol William M. Shafer, Human Press.

[2] = system: M. luteus; experiment: Minimal Effective Concentration (MEC) assay; format: cell-based, Micrococcus luteus
Description: as §1

[3] = system: Staphylococcus carnosus; experiment: TAPS (Trans Acting Peptide System) assay, radial diffusion read-out; format: cell-based; design: key: classified as 4>3>2>1; whereas 4 is better than 1; classified as 4>3>2>1; classified as 4>3>2>1; wildtype activity corresponds to 1; conditions: peptide expressed in E. coli
Description: A range of antimicrobial polypeptides, which are variants of SEQ ID NO: 1, were tested in the TAPS assay. TAPS may be used to identify new or improved genes encoding peptides that can kill or inhibit the growth of target cells (see PCT application WO 2004/033715). The TAPS assay, an acronym for Trans Acting Peptide System, is based on having a sensitive host producing a peptide followed by screening for its activity in trans against an indicator strain. The advantage of this system is based on that the antimicrobial peptide is expressed in the Gram-negative bacterium E. coli and its antimicrobial activity can be monitored on different microbes including Gram-negatives, positives or fungi. Additionally, TAPS offers the possibility to produce correctly folded AMPs containing disulfide bonds in the host cells, thereby retaining their antimicrobial activities.
The TAPS approach requires first, that expression of the peptide is under control of an inducible promoter with tight regulation, because the host cells are sensitive to the peptide when producing it. Secondly, the produced peptide has to be released to the media so that it can interact with the target organism.
The TAPS screening can be carried out either in solid or liquid media. On solid media, a plasmid library is initially introduced into E. coli host cells. […] In the next step, the filter containing the colonies is transferred to LB growth medium containing inducer (0.1% arabinose) to permit peptide synthesis. Subsequently, the target strain, for example S. carnosus, is overlaid onto the plate and allowed to grow for 12-16 hours at 37° C. Finally, visual inspection of the host cells capable of reducing the proliferation of the target cells is performed and the nucleotide sequence encoding for the antimicrobial peptide is recovered from the host cells. DNA sequence analysis of the variants is obtained to elucidate the nature of the peptide.
As mentioned above, the TAPS screening can also be performed using liquid medium. This procedure requires the use of robotics to analyze large number of clones. In this system, the host E. coli origami cells are transformed with the plasmid library and plated out on LB medium+0.2% glucose+ampicillin (200 mg/L). Independent colonies are then inoculated into 96 or 384-well plates containing 200 micro-L of TB medium+ampicillin (200 mg/L) and cultured overnight at 37° C. These cultures are then replicated robotically and grown to exponential phase until inducer (0.1% arabinose) is added to trigger peptide synthesis. The next step consists in hydrolyzing the cells such that the peptide is released to the media by hot acid hydrolysis. This treatment consists on adding 1 M sodium Phosphate buffer pH 2.3 to obtain a final pH approximately of 2.3 and incubating the cultures overnight at 80° C. Next day, a 25 micro-L aliquot of the hydrolyzed cultures is used to perform an activity test against the desired target organisms. The activity test performed was a Radial Diffusion Assay (RDA) where an aliquot of the hydrolyzed cultures was added to the agarose media inoculated with the target strain, S. carnosus. […] Measurements of the diameter of the clearing zones were performed to quantify the potency of the antimicrobial activity of the peptides.
The antimicrobial activity (against Staphylococcus carnosus) of the tested plectasin variants, which was measured using the TAPS assay, is shown in table 3. The antimicrobial activity corresponds to the clearing zone size and has been classified as 4>3>2>1; whereas 4 is better than 1, and wildtype activity corresponds to 1.

[4] = system: B. subtilis; experiment: Minimal Effective Concentration (MEC) assay; format: cell-based, Bacillus subtilis
Description: as §1

[5] = system: Staphylococcus aureus, MRSA ST80 (2003); experiment: MIC, NCCLS/CLSI guidelines (Example 5), strain E; format: cell-based; conditions: relative to wildtype Plectasin; average of two independent experiments
Outline: (§2)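 MICs of purified plectasin peptides are measured according to NCCLS/CLSI guidance. Each value averages duplicate independent experiments and is given as a category relative to wild-type: 0 above 100%, 1 80-100%, 2 50-80%, 3 below 50%.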

[6] = system: panel of 6 different strains of Staphylococcus aureus; experiment: Average MIC, NCCLS/CLSI guidelines using caMHB (Example 6); format: cell-based; conditions: average over 6 S. aureus strains, duplicate; MIC above 32 counted as 64; read after 18-24 hours at 37° C.
Outline: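 MICs were determined by broth dilution per NCCLS/CLSI in caMHB against six S. aureus strains (four MSSA, two MRSA), with peptides at 0.03–32 microgram/mL, read after 18-24 h at 37° C. Each was tested in duplicate and the two results averaged; MICs above 32 micrograms/mL were counted as 64.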

[7] = system: Staphylococcus aureus, ATCC 29737; experiment: MIC, NCCLS/CLSI guidelines (Example 5), strain C; format: cell-based; conditions: relative to wildtype Plectasin; average of two independent experiments
Outline: (§3)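 Recombinant plectasin variants, expressed and purified; MIC per NCCLS/CLSI; n=2 independent expts, averaged; reported as category vs wild-type MIC (0 >100%, 1 80-100%, 2 50-80%, 3 <50%).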

[8] = system: Staphylococcus aureus, MRSA ST5 (2001); experiment: MIC, NCCLS/CLSI guidelines (Example 5), strain D; format: cell-based; conditions: relative to wildtype Plectasin; average of two independent experiments
Outline: as §2

[9] = system: Staphylococcus aureus, ATCC 25923; experiment: MIC, NCCLS/CLSI guidelines (Example 5), strain B; format: cell-based; conditions: relative to wildtype Plectasin; average of two independent experiments
Outline: as §3

[10] = system: S. aureus; experiment: Minimal Inhibitory Concentration, NCCLS guidelines (Example 4); format: cell-based, Staphylococcus aureus; conditions: purified peptide
Description: (§4) The Minimal Inhibitory Concentration (MIC, micrograms/mL) was determined to test for their antimicrobial activity following the NCCLS guidelines (Clinical and Laboratory Standards Institute; formerly known as National Committee for Clinical and Laboratory Standards).

[11] = system: M. luteus; experiment: as above; format: cell-based, Micrococcus luteus; conditions: purified peptide
Description: as §4

[12] = system: B. subtilis; experiment: as above; format: cell-based, Bacillus subtilis; conditions: purified peptide
Description: as §4

[13] = system: Staphylococcus aureus, ATCC 29213; experiment: MIC, NCCLS/CLSI guidelines (Example 5), strain A; format: cell-based; conditions: relative to wildtype Plectasin; average of two independent experiments
Outline: as §3

Row | Substance | MEC against S. epidermis [1] [micrograms/mL] | MEC against M. luteus [2] [micrograms/mL] | Activity (antimicrobial activity, clearing zone size) [3] | MEC against B. subtilis [4] [micrograms/mL] | Relative MIC, strain E [5] | Average MIC [6] [micrograms/mL] | Relative MIC, strain C [7] | Relative MIC, strain D [8] | Relative MIC, strain B [9] | MIC against S. aureus [10] [micrograms/mL] | MIC against M. luteus [11] [micrograms/mL] | MIC against B. subtilis [12] [micrograms/mL] | Relative MIC, strain A [13]
1 | GFGCNGPWDEDDMQCHNHCKSIKGYKGGYCAKGGFVCKCYR [Mutation Y40YR] | 0.31 | 0.18 | 2 | 0.05 | – | – | – | – | – | – | – | – | –
2 | GFGCNGPWDEDDMQCHRHCKSIKGYKGGYCAKGGFVCKCY [Mutation N17R] | 0.59 | 0.32 | 2 | 0.07 | 2 (50-80% of Plectasin wildtype MIC) | 4 | 3 (<50% of Plectasin wildtype MIC) | 3 (<50% of Plectasin wildtype MIC) | 3 (<50% of Plectasin wildtype MIC) | – | – | – | –
3 | GFGCNGPWDEGDMQCHNHCKSIKGYRGGYCAKGGFVCKCY [D11G + K26R] | – | – | 2 | – | – | 11 | – | – | – | 2 | 8 | 0.50 | –
4 | GFGCNGPWDEGDMQCHNHCKSIKGYRGGYCAKGGFVCKCYR (Synthetic antimicrobial polypeptide) [D11G + K26R + Y40YR] | – | – | 4 | – | – | 9 | 3 (<50% of Plectasin wildtype MIC) | 3 (<50% of Plectasin wildtype MIC) | 3 (<50% of Plectasin wildtype MIC) | 0.50 | 0.25 | 0.06 | 3 (<50% of Plectasin wildtype MIC)
5 | Y25R (GFGCNGPWDEDDMQCHNHCKSIKGRKGGYCAKGGFVCKCY) [Mutation Y25R] | – | 1.40 | – | 0.04 | – | – | – | – | – | – | – | – | –
